# Results taken from the Deep4Chem optical property database.
# Several values for one entry are separate records, joined by “and”; a condition that tells them apart may be missing. Equal values may be shown once.
# Assay: solvent given as SMILES
# [1] = in O=P(c1ccccc1)(c1ccccc1)c1ccccc1Oc1ccccc1P(=O)(c1ccccc1)c1ccccc1
compound,measurement,setting,value
COc1cc2c(cc1OC)C1=C[C@H](c3ccc(C)cc3)C3(C(C#N)=C(C#N)N1CC2)c1cc(Br)ccc1-c1ccc(Br)cc13,emission maximum,in ClCCl,405 nm
COc1ccc(C(=O)OCc2ccc3c4cccc5cccc(c6cccc2c63)c54)cc1,emission maximum,in CCO,447 nm
C(=C\c1ccccn1)/c1ccc(N(c2ccc(/C=C/c3ccccn3)cc2)c2ccc(-c3nc4ccccc4nc3-c3ccc(N(c4ccc(/C=C/c5ccccn5)cc4)c4ccc(/C=C/c5ccccn5)cc4)cc3)cc2)cc1,emission maximum,in C1CCOC1,548 nm
same,emission maximum,in Cc1ccccc1,533 nm
COc1cc2c(cc1-c1ccc(N(c3ccccc3)c3ccccc3)cc1)Cc1c3c(c4c(c1-2)-c1cc(OC)c(-c2ccc(N(c5ccccc5)c5ccccc5)cc2)cc1C4)C(=O)N(CCC(C)C)C3=O,emission maximum,in C1CCOC1,563 nm
COc1ccc(-c2nc(-c3ccc(-c4nc(-c5ccc(OC)cc5)c(-c5ccc(OC)cc5)[nH]4)cc3)[nH]c2-c2ccc(OC)cc2)cc1,emission maximum,in CC#N,416.5 nm and 440 nm
CCOC(=O)C1(O)c2cc3ccc4cccc5ccc(c2C(=O)N1C(C)(C)C)c3c45 (centres undefined),emission maximum,in ClC(Cl)Cl,387 nm
C[Si](C)(C)c1ccc(-c2ccc(-c3ccc(-c4ccc(-c5ccc([Si](C)(C)C)s5)cc4)c4nsnc34)cc2)s1,emission maximum,in C1CCOC1,540 nm
COc1ccc(/C=C(\c2ccccc2)c2nc3ccccc3s2)cc1,emission maximum,in C1CCCCC1,400 nm
same,emission maximum,in CO,420 nm
COc1cc(OC)cc(C2=C(c3cc(OC)c(OC)c(OC)c3)C3=Nc4c(-c5cc(OC)c(OC)c(OC)c5)c(-c5cc(OC)cc(OC)c5)c(-c5ccc(C(C)(C)C)cc5)n4[B-](F)(F)[N+]3=C2c2ccc(C(C)(C)C)cc2)c1,emission maximum,in Cc1ccccc1,721 nm
CC1(C)C(/C=C2\C(=O)C(/C=C3\Nc4ccccc4C3(C)C)=C2[O-])=[NH+]c2ccccc21,emission maximum,in ClC(Cl)Cl,670 nm
Cc1cc(C)c(B(c2ccccc2N(c2ccccc2)c2ccccc2)c2c(C)cc(C)cc2C)c(C)c1,emission maximum,in CC(C)=O,532.95 nm
same,emission maximum,in Cc1ccccc1,498 nm
same,emission maximum,in ClCCl,518.5 nm
Cc1cc(C)c(B2c3cc(C(C)(C)C)ccc3-c3c(-c4ccccc4)ccc4cc(C(C)(C)C)cc2c34)c(C)c1,emission maximum,in C1CCCCC1,470 nm
CC(C)(C)c1ccc2c(c1)c1cc(C(C)(C)C)ccc1n2-c1ccc(-c2nc(-c3ccc(-n4c5ccc(C(C)(C)C)cc5c5cc(C(C)(C)C)ccc54)cc3)nc(-c3ccc(P(=O)(c4ccccc4)c4ccccc4)cc3)n2)cc1,emission maximum,in C1CCOC1,501.73 nm
same,emission maximum,in CC#N,543.52 nm
same,emission maximum,in CC(C)=O,525.92 nm
same,emission maximum,in CN(C)C=O,574.19 nm
same,emission maximum,in Cc1ccccc1,474.19 nm
same,emission maximum,in ClCCl,526.57 nm
same,emission maximum,[1],492 nm
C(S/C=C/c1ccc(-c2ccc(/C=C/SC=C3CCCCCCC3)cc2)cc1)=C1CCCCCCC1,emission maximum,in ClCCl,437 nm
O=c1ccc2ccccc2o1,emission maximum,in O,385 nm
COC(=O)c1ccc(/C=C2\N=C(c3ccc(OC)c(OC)c3)NC2=O)cc1,emission maximum,in C1COCCO1,478 nm
COc1ccc(C#Cc2c3cc4ccccc4cc3c(C#Cc3ccc(OC)cc3)c3cc4ccccc4cc23)cc1,emission maximum,in ClCCl,706 nm
c1ccc(-c2nnc(-c3ccc(N4c5ccccc5N(c5ccccc5)c5ccccc54)cc3)n2-c2ccccc2)cc1,emission maximum,in Cc1ccccc1,528 nm
same,emission maximum,in c1cc(-n2c3ccccc3c3ccccc32)cc(-n2c3ccccc3c3ccccc32)c1,520 nm
CCCCCCc1ccsc1-c1cc2c3cc(-c4sccc4CCCCCC)c4nc(C(F)(F)C(F)(F)C(F)(F)F)nc5c(-c6sccc6CCCCCC)cc(c6cc(-c7sccc7CCCCCC)c7nc(C(F)(F)C(F)(F)C(F)(F)F)nc1c7c26)c3c45,emission maximum,in C1CCOC1,627 nm
CCCC1=CC2=C(c3c(C)cc(C)cc3C)c3cc(CCC)c(-c4ccc5ccc6cccc7ccc4c5c67)n3[B-](F)(F)[N+]2=C1c1ccc2ccc3cccc4ccc1c2c34,emission maximum,in ClC(Cl)Cl,626 nm
CC1(C)c2ccccc2N(c2c(F)cc(-c3nnc(-c4ccccc4)o3)cc2F)c2ccccc21,emission maximum,in Cc1ccccc1,490 nm
same,emission maximum,[1],495 nm
CCOc1cc2c(cc1/C=C/C(=C(C#N)C#N)c1ccccc1)c1ccccc1n2CC,emission maximum,in C1CCOC1,541 nm
same,emission maximum,in CC#N,569 nm
same,emission maximum,in CCO,575 nm
same,emission maximum,in CCOC(C)=O,537 nm
same,emission maximum,in CN(C)C=O,573 nm
same,emission maximum,in CS(C)=O,575 nm
same,emission maximum,in Cc1ccccc1,522 nm
same,emission maximum,in ClC(Cl)Cl,550 nm
same,emission maximum,in ClCCl,558 nm
CN1c2ccccc2CCc2ccccc21,emission maximum,in CC#N,346 nm
same,emission maximum,in CO,348 nm
CCCCCCc1ccsc1-c1ccc(-c2sc(C(=O)O)cc2CCCCCC)s1,emission maximum,in CC(C)=O,468 nm
same,emission maximum,in CCCCCC,458 nm
same,emission maximum,in CCO,451 nm
same,emission maximum,in CO,451 nm
same,emission maximum,in ClCCl,479 nm
same,emission maximum,in O,490 nm
c1ccc(-c2cc3cc4cccc5c(-c6ccccc6)cc6cc7cccc2c7c3c6c45)cc1,emission maximum,in ClCCl,442 nm
FC(F)(F)c1c(-n2c3ccccc3c3ccccc32)c(-n2c3ccccc3c3ccccc32)c(-n2c3ccccc3c3ccccc32)c(-n2c3ccccc3c3ccccc32)c1-n1c2ccccc2c2ccccc21,emission maximum,in ClCCl,481 nm
Cc1ccc(-c2c3nc(c(-c4ccc(C)cc4)c4ccc([nH]4)c(-c4ccc(OC(=O)C(C)c5ccc(-c6ccccc6)c(F)c5)cc4)c4nc(c(-c5ccc(C)cc5)c5ccc2[nH]5)C=C4)C=C3)cc1 (centres undefined),emission maximum,in ClCCl,653 nm
CCCCCCOc1ccc(-c2ccc(/C=C/c3cc(/C=C/c4ccc(-c5ccc(OCCCCCC)cc5)cc4)ncn3)cc2)cc1,emission maximum,in ClCCl,483 nm
CC1(C)c2cc(/C=C/c3nc(/C=C/c4ccc5c(c4)C(C)(C)c4cc(N(c6ccccc6)c6ccccc6)ccc4-5)nc(/C=C/c4ccc5c(c4)C(C)(C)c4cc(N(c6ccccc6)c6ccccc6)ccc4-5)n3)ccc2-c2ccc(N(c3ccccc3)c3ccccc3)cc21,emission maximum,in C1CCOC1,555 nm
N#Cc1nc(N(Cc2ccc(Br)cc2)Cc2ccc(Br)cc2)c(C#N)nc1N(Cc1ccc(Br)cc1)Cc1ccc(Br)cc1,emission maximum,in ClC(Cl)Cl,575 nm
N#Cc1ccc(C2=CC3=c4cc(-c5ccc(C#N)cc5)c5nc(C(F)(F)C(F)(F)C(F)(F)F)nc6c(-c7ccc(C#N)cc7)cc(c4c65)C4=CC(c5ccc(C#N)cc5)=C5N=C(C(F)(F)C(F)(F)C(F)(F)F)N=C2C5C43)cc1 (centres undefined),emission maximum,in C1CCOC1,518 nm
CCOC(=O)C1=C(C(=O)OCC)C2(c3ccccc3-c3c(Br)cc(Br)cc32)C2(/C=C/c3ccc(Cl)cc3)c3cc(OC)c(OC)cc3CCN12 (centres undefined),emission maximum,in ClCCl,495 nm
c1ccc(C2=C(c3ccccc3)c3cccc4c5c(cc(c34)O2)=NC2CCCCC2N=5)cc1 (centres undefined),emission maximum,in ClCCl,545 nm
